Some test systems named below: T-47D breast; OVCAR-5 ovarian; LOX IMVI melanoma; PC-3 prostate; A498 renal; HCT-116 colon; SK-MEL-5 melanoma; LXFL 529 NSCLC; DMS 273 small cell lung.
Common to all, as to assay: DTP human tumour cell line panel, 48 h

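Briefly, cells in 96-well plates were exposed to five compound concentrations for 48 h, and endpoints were estimated by linear interpolation. Here, GI50 denotes the concentration required for 50% inhibition of growth. TGI: total growth inhibition.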

In general, TGI refers to the concentration giving total growth inhibition. A lower TGI goes with greater sensitivity of the cells. Regarding `CCC[C@@H](O)C[C@@H]1CCC[C@H](C[C@@H](O)CC)N1C`, the total growth inhibition concentration (TGI) in the test with T-47D breast, in the test on OVCAR-5 ovarian, in the test on LOX IMVI melanoma, in the test on PC-3 prostate, with A498 renal and in the test with HCT-116 colon was more than 100 µM each time. Besides, in the test on SK-MEL-5 melanoma, the total growth inhibition concentration (TGI) is more than 100 µM.
Regarding `CCOC(=O)Nn1c(C)nnc1-c1ccccc1`, the TGI with T-47D breast, in the test with OVCAR-5 ovarian, in the test with LOX IMVI melanoma, in the test on PC-3 prostate, in the test on A498 renal and in the test on HCT-116 colon was more than 100 µM each time. Also, in the test with SK-MEL-5 melanoma, the TGI was more than 100 µM.
Regarding `CC(C)/C(Cl)=N\OC(=O)Nc1ccc(S(N)(=O)=O)cc1`, the TGI in the test on T-47D breast came out at 52 µM; in the test on OVCAR-5 ovarian it was 33.8 µM; with LOX IMVI melanoma, 7 µM; in the test on PC-3 prostate it was 32.6 µM; with A498 renal it was 31.7 µM; with HCT-116 colon, 27.7 µM. The compound also showed a total growth inhibition concentration (TGI) in the test on SK-MEL-5 melanoma of 29.4 µM.
Regarding `C[C@@]12C[C@@H](c3ccccc3O1)N1CCCCSC1=N2`, the concentration for total growth inhibition (TGI) with T-47D breast, in the test on OVCAR-5 ovarian, with LOX IMVI melanoma, in the test on PC-3 prostate, with A498 renal and in the test with HCT-116 colon was more than 100 µM in each case. Moreover, in the test with SK-MEL-5 melanoma, the total growth inhibition concentration (TGI) was more than 100 µM.
Take `N=c1n(C(=O)N2CCCC2)c2cc(Cl)ccc2n1C1=NCCN1`: the TGI in the test on T-47D breast is 98.2 µM; in the test on OVCAR-5 ovarian, more than 100 µM; in the test with LOX IMVI melanoma it was more than 100 µM; in the test on PC-3 prostate it was more than 100 µM; in the test with A498 renal it was more than 100 µM; in the test with HCT-116 colon it was more than 100 µM. This compound also returned a TGI in the test on SK-MEL-5 melanoma of more than 100 µM.
Regarding `O=S1(=O)NC(=NCc2c[nH]c3ccccc23)N(c2ccccc2)c2ccncc21`, the TGI in the test with T-47D breast, with OVCAR-5 ovarian, in the test with LOX IMVI melanoma, in the test on PC-3 prostate, with A498 renal and with HCT-116 colon was more than 100 µM in each case. This compound displayed a TGI with SK-MEL-5 melanoma of more than 100 µM.
For the compound `N#CC1=C(N)N(c2ccccc2)C(c2ccco2)C1(C#N)C#N` (centres undefined), the total growth inhibition concentration (TGI) in the test on T-47D breast is 81 µM; in the test on OVCAR-5 ovarian, 48.4 µM; with LOX IMVI melanoma, 31.1 µM; with PC-3 prostate it was 60.5 µM; in the test on A498 renal it was 49.1 µM; in the test on HCT-116 colon, more than 100 µM. The compound also registered a TGI in the test on SK-MEL-5 melanoma of 32.3 µM.
On to `Cc1ccccc1-n1c(=O)c2ncn(CCCl)c2n(-c2ccccc2C)c1=S`, for which the total growth inhibition concentration (TGI) with T-47D breast, in the test with OVCAR-5 ovarian, with LOX IMVI melanoma, with PC-3 prostate, in the test on A498 renal and in the test on HCT-116 colon was more than 100 µM each time. The TGI in the test on SK-MEL-5 melanoma was more than 100 µM.
For the compound `CC1=CC2C(O1)C1C(=O)C=CC(=O)C1=CC2[N+](=O)[O-]` (centres undefined), the total growth inhibition concentration (TGI) in the test with T-47D breast was more than 29.2 µM; in the test on OVCAR-5 ovarian, 63.3 µM; in the test with LOX IMVI melanoma it was more than 52.3 µM; in the test with PC-3 prostate, 37.9 µM; in the test with A498 renal it was 40.6 µM; with HCT-116 colon, 31.8 µM. The TGI in the test on SK-MEL-5 melanoma came to 38.2 µM.
Take `O=[N+]([O-])/C(C(Cl)=C(Cl)Cl)=C(\SCc1ccccc1)N1CCCCC1`: the TGI in the test with T-47D breast turned out to be 51.1 µM; with OVCAR-5 ovarian, 43.9 µM; in the test with LOX IMVI melanoma, 35 µM; in the test with PC-3 prostate, 74.8 µM; with A498 renal, 70.1 µM; with HCT-116 colon, 31.3 µM. The same compound registered a total growth inhibition concentration (TGI) in the test on SK-MEL-5 melanoma of 31.4 µM.
For the compound `CC(=O)NC1=C(NCCC(C)C)C(=O)c2ccccc2C1=O`, the TGI in the test on LXFL 529 NSCLC, with LOX IMVI melanoma, in the test on HCT-116 colon, in the test with SK-MEL-5 melanoma and in the test on DMS 273 small cell lung was more than 50 µM in each case.
`COC(=O)[C@H]1CO[C@@H](C(C)(C)C)N1C(=O)N1C=CC(=O)C[C@@H]1C`: the total growth inhibition concentration (TGI) in the test on T-47D breast, in the test on OVCAR-5 ovarian, with LOX IMVI melanoma, with PC-3 prostate, in the test with A498 renal and in the test with HCT-116 colon was more than 100 µM throughout. In the test on SK-MEL-5 melanoma, this compound showed a total growth inhibition concentration (TGI) of more than 100 µM.
Regarding `C(/c1ccco1)=c1/nc(-c2ccccc2)n2c1nc1ccccc12`, the TGI in the test on T-47D breast was more than 100 µM; in the test with OVCAR-5 ovarian, more than 100 µM; in the test on LOX IMVI melanoma, more than 100 µM; with PC-3 prostate, 9.43 µM; in the test with A498 renal, more than 100 µM; in the test on HCT-116 colon, 71.1 µM. In the test on SK-MEL-5 melanoma, the TGI was more than 100 µM.
Consider `CC(C)CC(=O)OC[n+]1ccc(-c2c(COC(=O)NC(C)C)c(COC(=O)NC(C)C)c3n2CCC3)cc1`, for which the concentration for total growth inhibition (TGI) in the test with T-47D breast, in the test with OVCAR-5 ovarian, in the test on LOX IMVI melanoma, with PC-3 prostate, in the test on A498 renal and with HCT-116 colon was more than 100 µM throughout. The TGI in the test with SK-MEL-5 melanoma is more than 100 µM.
What is called GI50 is the concentration giving 50% growth inhibition. Take `N.N.N.N.O=[N+]([O-])[O-].[Co+3].[N-]=[N+]=[N-].[N-]=[N+]=[N-]`: the GI50 in the test with LXFL 529 NSCLC and with DMS 273 small cell lung was more than 100 µM in each case. The TGI with LXFL 529 NSCLC, with OVCAR-5 ovarian, in the test on LOX IMVI melanoma, in the test with A498 renal, in the test with HCT-116 colon and with SK-MEL-5 melanoma was more than 100 µM in each case. The compound further had a TGI in the test on DMS 273 small cell lung of more than 100 µM.
For `COc1ccc(C2c3cc4c(cc3OC(NNS(=O)(=O)c3ccc(C)cc3)C2C)OCO4)cc1` (centres undefined), the total growth inhibition concentration (TGI) in the test with T-47D breast, with OVCAR-5 ovarian, in the test on LOX IMVI melanoma, in the test on PC-3 prostate, with A498 renal and in the test on HCT-116 colon was more than 100 µM in each case. Moreover, the concentration for total growth inhibition (TGI) with SK-MEL-5 melanoma is more than 100 µM.
On to `Oc1cc2c3c(c1)c1cc4c(cc1c[n+]3CC2)OCO4`, for which the TGI in the test with T-47D breast was 22.5 µM; in the test with OVCAR-5 ovarian, more than 100 µM; in the test on LOX IMVI melanoma it was 18.4 µM; with PC-3 prostate it was 37.3 µM; with A498 renal, more than 74.7 µM; with HCT-116 colon it was more than 40.5 µM. The compound further returned a TGI in the test with SK-MEL-5 melanoma of more than 100 µM.
